Assay results published in the OligoGym collection.
“And” between values parts separate entries of the source, which are not always exact repeats. Equal values may be shown once. After the bases stand the sugars from the 5' end (letter, count) and the backbone: PS all phosphorothioate, else s phosphorothioate and o phosphodiester by linkage. Methylation of C is not given here. e = 2'-O-(2-methoxyethyl) (MOE); k = constrained ethyl (cEt); d = 2'-deoxy (DNA)

Each sequence was assayed against IRF4. Details: ASO, MM.1R, 1 µM.

Sequence	target mRNA inhibition
AGTGTCTAAAGTCCCA (sugars k2 d9 e3 k2, PS)	26% and 12%
ACTGCTTGAGGTTTTC (sugars kkkdddddddddkeke, PS)	38%
CTTAGGCACATCAATG (sugars k3 d10 k3, PS)	8%
GGCTCTGCAAACGACA (sugars k3 d10 k3, PS)	0%
CAAGTGTCTAAAGTCC (sugars k3 d10 k3, PS)	3%
CAGATTTACACCGTTG (sugars k3 d10 k3, PS)	15%
TGCCATGGACAAGTTT (sugars k3 d10 k3, PS)	-18%
TGATAGCTGAGCTGAT (sugars kkdddddddddkdkdk, PS)	-22%
TGTAGTATGAGAAACG (sugars kkkddddddddkekek, PS)	23%
GAAGTTTACACTGGAT (sugars k2 d9 e3 k2, PS)	28%
CACTATTCGAGAGAAA (sugars k3 d10 k3, PS)	30%
GTTTGCCATGGTATTT (sugars k3 d10 k3, PS)	41% and 50%
CGGGTCTGAGATGTCC (sugars k3 d10 k3, PS)	-2%
GGTGAGAGACGAAAAC (sugars k3 d10 k3, PS)	-16%
GGTCAACACTTGGAGA (sugars k3 d10 k3, PS)	-23%

Same assay, conditions: ASO, SK-MEL-28, 4 µM

Sequence	target mRNA inhibition
GCGGATAGATCTGTGG (sugars k3 d10 k3, PS)	55%
CGGGAGATAAAGAACA (sugars k3 d10 k3, PS)	31%
TTCCAGTGGTGGGTCC (sugars k3 d10 k3, PS)	29%
GGCAGCACCGTGTGGA (sugars k3 d10 k3, PS)	53%
GGACCTGGTCCAGGTT (sugars k4 d8 k4, PS)	-28%
TAGGAAGTTTACTAAC (sugars k3 d10 k3, PS)	36%
GACCATGTTACACTTT (sugars k3 d10 k3, PS)	50%
CACAGGCGCGGACGCA (sugars k3 d10 k3, PS)	14%
ATGGCAGTCTACAGAA (sugars k3 d10 k3, PS)	-2%
TGGCACCAAGGTCCAG (sugars k3 d10 k3, PS)	1%
TATCATATGCCCAATA (sugars k3 d10 k3, PS)	32%
AAACAGTGCCCAAGCC (sugars k3 d10 k3, PS)	25%
CACCCCTTCTTGTGGA (sugars k3 d10 k3, PS)	40%
CTTTCACTAAAGTCAA (sugars k3 d10 k3, PS)	51%
GAAACCGCTGGCAGGT (sugars k3 d10 k3, PS)	50%
TCCACTGTTAAAGCAG (sugars k3 d10 k3, PS)	55%
CAAGACCTAATCTACA (sugars k3 d10 k3, PS)	12%
TACTAATTCCATAGAG (sugars k3 d10 k3, PS)	26%
CTAGTCAGTGTCAATA (sugars k3 d10 k3, PS)	51%
TTATGCATGTTCCTCA (sugars k3 d10 k3, PS)	57%
CATGGCAGTGGAGCTC (sugars k3 d10 k3, PS)	87% and 82%
TCCTTAATTATGCAGA (sugars k3 d10 k3, PS)	44%
AAAGATGCCAGAGGGC (sugars k3 d10 k3, PS)	23%
GTGTGGCTGATCCGGG (sugars k3 d10 k3, PS)	27%
CAAATTAAAGAGCGCA (sugars k3 d10 k3, PS)	57%
TTATTAGACTGACAGC (sugars k3 d10 k3, PS)	37%
AGCTAGAACATGATGA (sugars k3 d10 k3, PS)	5%
CTACCTTTTTTGGCTC (sugars k3 d10 k3, PS)	17%
CACATTTGAGAGCTAC (sugars k3 d10 k3, PS)	74%
GCATGTTCCTCAAAGC (sugars k3 d10 k3, PS)	76%
